{
  "source": "paper PMC11092195",
  "about": "“Selective Detection of Active Extracellular Granzyme A by Using a Novel Fluorescent Immunoprobe with Application to Inflammatory Diseases” (ACS Pharmacology & Translational Science, 2024)",
  "molecular_target": "T1, hGzmK (human GzmK) (Homo sapiens, UniProt P49863)",
  "T1 construct": "commercial, Enzo Life Sciences",
  "T1 sequence (P49863 27-264)": "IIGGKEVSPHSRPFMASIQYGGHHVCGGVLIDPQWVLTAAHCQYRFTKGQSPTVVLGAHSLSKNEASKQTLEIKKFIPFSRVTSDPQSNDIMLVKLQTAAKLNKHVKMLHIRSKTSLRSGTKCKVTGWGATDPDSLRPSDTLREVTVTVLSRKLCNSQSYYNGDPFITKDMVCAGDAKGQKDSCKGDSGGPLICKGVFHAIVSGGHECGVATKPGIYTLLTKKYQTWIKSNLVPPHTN",
  "experiment": "thioester hydrolysis with DTNB, used to normalise enzyme units",
  "type": "biochemical",
  "details": "Tris-HCl pH 8.5, 37 °C",
  "note": "Structures can show the parent of a compound that is named as a salt.",
  "data": [
    {"compound": "NCCCC[C@H](NC(=O)OCc1ccccc1)C(=O)SCc1ccccc1", "note": "[Nα-CBZ-L-Lysine thiobenzyl ester hydrochloride]", "values": [
      {"measurement": "thioester hydrolysis with DTNB, used to normalise enzyme units", "result": "activity of the different trypsin-like proteases was equated using a common substrate"}
    ]}
  ]
}
